ChEMBL document CHEMBL3044929, “Insecticidal activity of sesquiterpenes skeleton synthesized by the conventional Robinson annulations reaction on Drosophila melanogaster” (2013)

Assays:
[1] = tested on: Drosophila melanogaster; assay: Insecticidal activity against first-instar larval stage of Drosophila melanogaster fed with artificial diet containing compound assessed as mortality at 37.6 umol/ml measured after 120 hr; type: functional
[2] = tested on: Drosophila melanogaster; assay: Insecticidal activity against first-instar larval stage of Drosophila melanogaster fed with artificial diet containing compound assessed as mortality at 18.3 umol/ml measured after 48 hr (reference value: 0%); type: functional
[3] = tested on: Drosophila melanogaster; assay: Insecticidal activity against first-instar larval stage of Drosophila melanogaster fed with artificial diet containing compound assessed as mortality at 18.3 umol/ml measured after 96 hr; type: functional
[4] = tested on: Drosophila melanogaster; assay: Insecticidal activity against first-instar larval stage of Drosophila melanogaster fed with artificial diet containing compound assessed as mortality at 8.3 umol/ml measured after 144 hr; type: functional
[5] = tested on: Drosophila melanogaster; assay: Insecticidal activity against first-instar larval stage of Drosophila melanogaster fed with artificial diet containing compound assessed as mortality at 37.6 umol/ml measured after 144 hr; type: functional
[6] = tested on: Drosophila melanogaster; assay: Insecticidal activity against first-instar larval stage of Drosophila melanogaster fed with artificial diet containing compound assessed as mortality at 18.3 umol/ml measured after 120 hr; type: functional
[7] = tested on: Drosophila melanogaster; assay: Insecticidal activity against first-instar larval stage of Drosophila melanogaster fed with artificial diet containing compound assessed as mortality at 37.6 umol/ml measured after 48 hr (reference value: 0%); type: functional
[8] = tested on: Drosophila melanogaster; assay: Insecticidal activity against first-instar larval stage of Drosophila melanogaster fed with artificial diet containing compound assessed as mortality at 37.6 umol/ml measured after 24 hr (reference value: 0%); type: functional
[9] = tested on: Drosophila melanogaster; assay: Insecticidal activity against first-instar larval stage of Drosophila melanogaster fed with artificial diet containing compound assessed as mortality at 18.3 umol/ml measured after 144 hr; type: functional
[10] = tested on: Drosophila melanogaster; assay: Insecticidal activity against first-instar larval stage of Drosophila melanogaster fed with artificial diet containing compound assessed as mortality at 8.3 umol/ml measured after 24 hr (reference value: 0%); type: functional
[11] = tested on: Drosophila melanogaster; assay: Insecticidal activity against first-instar larval stage of Drosophila melanogaster fed with artificial diet containing compound assessed as mortality at 18.3 umol/ml measured after 24 hr (reference value: 0%); type: functional
[12] = tested on: Drosophila melanogaster; assay: Insecticidal activity against first-instar larval stage of Drosophila melanogaster fed with artificial diet containing compound assessed as mortality at 18.3 umol/ml measured after 72 hr (reference value: 0%); type: functional
[13] = tested on: Drosophila melanogaster; assay: Insecticidal activity against first-instar larval stage of Drosophila melanogaster fed with artificial diet containing compound assessed as mortality at 8.3 umol/ml measured after 48 hr (reference value: 0%); type: functional
[14] = tested on: Drosophila melanogaster; assay: Insecticidal activity against first-instar larval stage of Drosophila melanogaster fed with artificial diet containing compound assessed as mortality at 8.3 umol/ml measured after 72 hr (reference value: 0%); type: functional
[15] = tested on: Drosophila melanogaster; assay: Insecticidal activity against first-instar larval stage of Drosophila melanogaster fed with artificial diet containing compound assessed as mortality at 8.3 umol/ml measured after 120 hr; type: functional
[16] = tested on: Drosophila melanogaster; assay: Insecticidal activity against first-instar larval stage of Drosophila melanogaster fed with artificial diet containing compound assessed as mortality at 8.3 umol/ml measured after 96 hr; type: functional
[17] = tested on: Drosophila melanogaster; assay: Insecticidal activity against first-instar larval stage of Drosophila melanogaster fed with artificial diet containing compound assessed as mortality at 37.6 umol/ml measured after 72 hr (reference value: 3.33 +/-0.33%); type: functional
[18] = tested on: Drosophila melanogaster; assay: Insecticidal activity against first-instar larval stage of Drosophila melanogaster fed with artificial diet containing compound assessed as mortality measured after 72 hr; type: functional; conditions: read-out: LD50 (the source's name)
[19] = tested on: Drosophila melanogaster; assay: Insecticidal activity against first-instar larval stage of Drosophila melanogaster fed with artificial diet containing compound assessed as mortality at 37.6 umol/ml measured after 96 hr; type: functional
[20] = tested on: Drosophila melanogaster; assay: Insecticidal activity against first-instar larval stage of Drosophila melanogaster fed with artificial diet containing compound assessed as mortality measured after 24 hr; type: functional; conditions: read-out: LD50 (the source's name)
[21] = tested on: Spodoptera frugiperda; assay: Insecticidal activity against Spodoptera frugiperda (fall armyworm) larvae assessed as mortality at 25 ppm; type: functional
[22] = molecular target: Acetylcholinesterase (Spodoptera litura) (UniProt C5IU80); assay: Inhibition of acetylcholinesterase in Spodoptera frugiperda (fall armyworm) at 15 ppm
Acetylcholinesterase (Spodoptera litura), sequence (C5IU80 as listed by the source): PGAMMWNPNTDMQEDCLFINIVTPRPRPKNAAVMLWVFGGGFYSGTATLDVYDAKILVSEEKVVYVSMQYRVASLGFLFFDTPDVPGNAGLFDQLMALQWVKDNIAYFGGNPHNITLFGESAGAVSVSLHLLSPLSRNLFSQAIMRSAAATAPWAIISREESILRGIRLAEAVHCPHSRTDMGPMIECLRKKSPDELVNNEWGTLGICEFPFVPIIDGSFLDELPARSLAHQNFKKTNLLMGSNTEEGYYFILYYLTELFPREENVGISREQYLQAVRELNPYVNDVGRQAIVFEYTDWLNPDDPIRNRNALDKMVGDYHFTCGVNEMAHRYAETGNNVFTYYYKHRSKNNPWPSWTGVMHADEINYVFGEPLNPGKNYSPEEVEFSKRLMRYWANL

Compound	mortality [1] [%]	mortality [2] [%]	mortality [3] [%]	mortality [4] [%]	mortality [5] [%]	mortality [6] [%]	mortality [7] [%]	mortality [8] [%]	mortality [9] [%]	mortality [10] [%]	mortality [11] [%]	mortality [12] [%]	mortality [13] [%]	mortality [14] [%]	mortality [15] [%]	mortality [16] [%]	mortality [17] [%]	mortality [19] [%]	also measured
C=C(C)[C@@H]1CC[C@]2(C)CCC(=O)[C@H](C)[C@]2(O)C1 [5ALPHA-HYDROXY-14-EUDESM-11-EN-3-ONE]	36.6	0	20	23.3	40	20	0	0	26.7	0	0	13.3	0	0	16.7	16.7	33.3	36.6	LC50 [18]: 42.6 mM
C=C(C)[C@@H]1CC[C@@]2(C)CCC(O)C(C)=C2C1 (mixture of isomers)	–	86.7	–	–	–	–	96	90	–	50	70	100	70	100	–	–	100	–	LC50 [20]: 8.78 mM
C=C(C)[C@@H]1CC[C@@]2(C)CC[C@@H](O)C(C)=C2C1 [3ALPHA-HYDROXY-CYPERONE]	10	0	3.3	0	10	3.3	6.7	0	6.6	0	0	3.3	0	0	0	0	6.7	10	–
CC1=C2C[C@H](C(C)(O)CO)CC[C@@]2(C)CCC1=O (stereo not given in full)	23	10	23	10	23	23	20	20	23	10	10	0	10	10	10	10	20	23	–
C=C(C)[C@@H]1CC[C@@]2(C)CC[C@H](O)C(C)=C2C1 [3BETA-HYDROXY-CYPERONE]	–	73.3	–	–	–	–	96	80	–	20	36.7	73.3	50	50	–	–	100	–	LC50 [18]: 9.36 mM
C=C(C)[C@@H]1CC[C@]2(C)CCC(=O)C[C@]2(O)C1 [5-HYDROXY-14-NOREUDESM-11-EN-3-ONE]	23.3	6.7	20	16.6	23.3	20	13.3	13	20	0	3.3	13.3	6.7	6.7	16.6	6.6	16.6	23.3	–
CC(=O)OC[C@H]1C[C@@H](OC(C)=O)[C@@H](OC(C)=O)[C@@]2(C)[C@H](OC(=O)c3ccccc3)[C@@H](OC(C)=O)[C@@H]3[C@H](OC(C)=O)[C@]12OC3(C)C	–	–	–	–	–	–	–	–	–	–	–	–	–	–	–	–	–	–	mortality at 25 ppm [21]: 100%
C=C(C)[C@@H]1CC[C@]2(C)CCC(=O)C(C)=C2C1 [(-)-10-EPI-ALPHA-CYPERONE]	–	0	–	–	–	–	0.11	0	–	0	0	0	0	0	–	–	0.11	–	–
C=C(C)[C@@H]1CC[C@@]2(C)CCC(=O)C(C)=C2C1 [ALPHA-CYPERONE]	–	100	–	–	–	–	100	96.7	–	70	83	100	76.6	100	–	–	100	–	LC50 [20]: 4.99 mM
CC(=O)OC[C@H]1C[C@@H](OC(C)=O)[C@@H](OC(C)=O)[C@@]2(C)[C@H](OC(=O)c3ccco3)[C@@H](OC(C)=O)[C@@H]3[C@H](OC(C)=O)[C@]12OC3(C)C	–	–	–	–	–	–	–	–	–	–	–	–	–	–	–	–	–	–	mortality at 25 ppm [21]: 100%; inhibition [22]: 100%
